Laboratory results from patent publication US9169267B2, “Quaternary ammonium salts, method for preparation and applications thereof” (Uniwersytet Medyczny IM. Karola Marcinkowskiego, priority 2012, dated 2015).

Assays:
Format in all cases: cell-based
[1] = test system: Candida albicans ATCC 10231; assay: Antimicrobial activity MIC/MBC test, Candida albicans ATCC 10231; conditions: ATCC10231, read-out: MBC (minimum bactericidal concentration)
Experimental: (§1) The four reference strains were indications of the minimum inhibitory concentration (MIC) and minimum bactericidal concentration (MBC) tests conducted for two newly synthesized compounds of the new quaternary ammonium salts derivatives: 4-[2-(4-bromophenyl)-2-oxoethyl]tetrahydro[1,3]oxazolo[2,3-b][1,3]oxazol-4-ium bromide and 4-[2-(biphenyl-4-yl)-2-oxoethyl]tetrahydro[1,3]oxazolo[2,3-b][1,3]oxazol-4-ium bromide. The study was carried out on strains: Staphylocoocus aureus ATCC 6538, Escherichia coli ATCC 25922, Pseudomonas aeruginosa ATCC 6749, Candida albicans ATCC 10231,

[2] = test system: Pseudomonas aeruginosa ATCC 6749; assay: Antimicrobial activity MIC/MBC test, Pseudomonas aeruginosa ATCC 6749; conditions: for MBC: ATCC6749, read-out: MBC (minimum bactericidal concentration); for MIC: ATCC6749, read-out: MIC (minimum inhibitory concentration)
Experimental: as §1

[3] = test system: Escherichia coli ATCC 25922; assay: Antimicrobial activity MIC/MBC test, Escherichia coli ATCC 25922; conditions: ATCC25922, read-out: MBC (minimum bactericidal concentration)
Experimental: as §1

[4] = test system: Staphylocoocus aureus ATCC 6538; assay: Antimicrobial activity MIC/MBC test, Staphylocoocus aureus ATCC 6538; conditions: read-out: MBC (minimum bactericidal concentration)
Experimental: as §1

Compound | MBC [1] | MBC [2] | MIC [2] | MBC [3] | MBC [4]
O=C(C[N+]12CCOC1OCC2)c1ccc(Br)cc1.[Br-] (stereo not shown) [4-[2-(4-bromophenyl)-2-oxoethyl]tetrahydro[1,3]oxazolo[2,3-b][1,3]oxazol-4-ium bromide] | 27.8 mg/mL | 27.8 mg/mL | 27.8 mg/mL | 6.94 mg/mL | 1.73 mg/mL
O=C(C[N+]12CCOC1OCC2)c1ccc(-c2ccccc2)cc1.[Br-] (stereo not shown) [4-[2-(biphenyl-4-yl)-2-oxoethyl]tetrahydro[1,3]oxazolo[2,3-b][1,3]oxazol-4-ium bromide] | 6.94 mg/mL | 55.5 mg/mL | 13.9 mg/mL | 3.47 mg/mL | 0.43 mg/mL
